Test results: US8486962B2, “Antifungal agents” (F2G Ltd., priority 2005, dated 2013)
≈ marks a conversion by molar mass, not a printed value.

Experiments:
Candida glabrata = assay: MIC, RPMI medium, Candida glabrata; assay type: cell-based; conditions: Nakaseomyces glabratus, read-out: MIC C. glabrata
Protocol: (§1) Measurement of Minimum Inhibitory Concentrations (MICs)
(§2) Between 1 and 5 mgs of compound were accurately weighed out into a sterile Eppendorf tube. The compound was dissolved in DMSO to give a solution containing 5 mg/ml. Tubes were stored at −20° C. until required.
(§3) On the day of testing thawed solutions were vortex mixed to ensure homogeneity. 30 μl of solution was removed and added to 570 μl of sterile water in a separate sterile Eppendorf. The thoroughly mixed solution was used to prepare a series of doubling dilutions in water, in a deep well plate. Eleven replicate plates were prepared using a Minitrak by aspirating 20 μl from each well into eleven clear polystyrene 96 well plates.
(§4) Spores of Aspergillus spp (Aspergillus fumigatus, Aspergillus terreus, Aspergillus niger and Aspergillus flavus) were harvested from cultures grown on Sabarauds agar for 5 days, and resuspended in PBS/Tween 80 to approx 1×10^7 cfu/ml Other filamentous fungi (Fusarium solani, Scedosporium spp., Trichophyton spp., Absidia corymbifera), were grown on Sabarauds agar for 2-10 days and spores/hyphae resuspended in PBS/Tween to give approx 1×10^7 cfU/ml. Candida species (Candida albicans, Candida glabrata, Candida krusei, Candida parapsilosis and Candida tropicalis) were grown on Sabarauds agar, cells were harvested from the agar using a sterile loop and resuspended in PBS/Tween 80 to approx 1×10^6 cfu/ml. Each organism suspension was diluted in RPMI medium, containing 2% glucose and 0.135M MOPS buffer (pH7.0) to 2×10^4 cfu/ml for Aspergillus spp and other filamentous fungi and 2×10^3 cfu/ml for yeast. 80 μl of an organism suspension was added to each well of the plate containing drug dilutions.
(§5) This produced MIC plates with a drug range 50-0.05 mg/L and organism inocula of 1-2×10^4 cfu/ml for Aspergillus spp and other filamentous fungi and 1-2×10^3 cfu/ml for yeasts. All plates were incubated for 24-48 hrs at 35° C. Growth was assessed by monitoring the optical density at 485 nm for each well. The MIC of a compound is the lowest drug concentration that inhibits growth of an organism by >80% compared with a drug free control. MICs are recorded as mg/L. Other growth media can be used for susceptibility testing, and the activity of the described compounds can also be assessed in a medium comprising, 1% glucose, 1% ammonium chloride and 0.5% yeast extract (YAG medium). To perform MIC tests in this medium, dilutions of compounds are prepared in microtitre plates as described above. Fungal strains to be tested are grown and harvested in an identical manner to that described above, each organism suspension is then diluted in YAG medium to 2×10^4 cfu/ml for Aspergillus spp and other filamentous fungi and 2×10^3 cfu/ml for yeast. 80 μl of an organism suspension was added to each well of the plate containing drug dilutions. This produced MIC plates with a drug range 50-0.05 mg/L and organism inocula of 1-2×10^4 cfu/ml for Aspergillus spp and other filamentous fungi and 1-2×10^3 cfu/ml for yeasts. All plates were incubated for 24 hrs at 35° C. Growth was assessed by monitoring the optical density at 485 nm for each well. The MIC of a compound is the lowest drug concentration that inhibits growth of an organism by >70% compared with a drug free control. MICs are recorded as mg/L. In cases where the MIC of an organism is […]0.05 mg/L the MIC is repeated using a concentration range of 0.5-0.0005 mg/L. MIC tests in YAG medium have more clear-cut endpoints and have slightly lower MICS than those performed in RPMI medium.
(§6) The following organisms were tested: Aspergillus fumigatus AF293 and Aspergillus fumigatus AF210, Aspergillus niger, Aspergillus terreus, Aspergillus favus, Candida albicans, Candida krusei, Candida tropicalis, Candida glabrata, Candida parapsilosis, Trichophyton rubrum, Trichophyton mentagrophytes, Scedosporium prolificans, Scedosporium apiospermum, Absidia corymbifera, Fusarium solani.

Candida parapsilosis = assay: MIC, RPMI medium, Candida parapsilosis; assay type: cell-based; conditions: Lodderomyces parapsilosis, read-out: MIC C. parapsilosis
Protocol: as §1, §2, §3, §4, §5, §6

Candida albicans = assay: MIC, RPMI medium, Candida albicans; assay type: cell-based; conditions: read-out: MIC C. albicans
Protocol: as §1, §2, §3, §4, §5, §6

Candida krusei = assay: MIC, RPMI medium, Candida krusei; assay type: cell-based; conditions: Pichia kudriavzevii, read-out: MIC C. krusei
Protocol: as §1, §2, §3, §4, §5, §6

Candida tropicalis = assay: MIC, RPMI medium, Candida tropicalis; assay type: cell-based; conditions: read-out: MIC C. tropicalis
Protocol: as §1, §2, §3, §4, §5, §6

Aspergillus terreus = assay: MIC, YAG medium, Aspergillus terreus; assay type: cell-based; conditions: Aspergillus terreus; YAG medium; read-out: MIC A Terreus 4
How it was run: (§7)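 OD at 485 nm versus drug-free control defines MIC (mg/L): >80% inhibition for Candida albicans in RPMI/2% glucose/MOPS pH7.0 after 24-48 hrs at 35° C, >70% for Aspergillus strains in YAG medium after 24 hrs at 35° C. Spore inocula 1-2×10^4 cfu/ml; yeast 1-2×10^3 cfu/ml.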

[1] = test system: Aspergillus fumigatus AF293; assay: MIC, YAG medium, Aspergillus fumigatus AF293; assay type: cell-based; conditions: Aspergillus fumigatus, AF293; YAG medium; read-out: MIC A Fum. 293
How it was run: as §7

Aspergillus flavus = assay: MIC, YAG medium, Aspergillus flavus; assay type: cell-based; conditions: Aspergillus flavus; YAG medium; read-out: MIC A Flavus 01
How it was run: as §7

[2] = test system: Aspergillus fumigatus AF210; assay: MIC, YAG medium, Aspergillus fumigatus AF210; assay type: cell-based; conditions: Aspergillus fumigatus, AF210; YAG medium; read-out: MIC A Fum. 210
How it was run: as §7

Aspergillus niger = assay: MIC, YAG medium, Aspergillus niger; assay type: cell-based; conditions: Aspergillus niger; YAG medium; read-out: MIC A Niger 1
How it was run: as §7

A Terreus 49 = assay: MIC, YAG medium, A Terreus 49; assay type: cell-based, Aspergillus terreus; conditions: Aspergillus terreus; YAG medium; read-out: MIC A Terreus 49
How it was run: as §7

Compound | MIC (Candida glabrata) [µg/mL] | MIC (Candida parapsilosis) [µg/mL] | MIC (Candida albicans) [µg/mL] | MIC (Candida krusei) [µg/mL] | MIC (Candida tropicalis) [µg/mL] | MIC (Aspergillus terreus) [µg/mL] | MIC [1] [µg/mL] | MIC (Aspergillus flavus) [µg/mL] | MIC [2] [µg/mL] | MIC (Aspergillus niger) [µg/mL] | MIC (A Terreus 49) [µg/mL]
COCCNC(=O)C(=O)c1c(-c2cccnc2)cc2ccccn12 [Example 185, N-(2-Methoxy-ethyl)-2-oxo-2-(2-pyridin-3-yl-indolizin-3-yl)-acetamide] | > 50 | 50 (≈ 155 µM) | 50 (≈ 155 µM) | > 50 | 12.5 (≈ 38.7 µM) |  |  |  |  |  | 
O=C(Nc1ccc(C(F)(F)F)cc1)C(=O)c1c(-c2cccnc2)cc2ccccn12 [Example 212, 2-Oxo-2-(2-pyridin-3-yl-indolizin-3-yl)-N-(4-trifluoromethyl-phenyl)-acetamide] | 25 (≈ 61.1 µM) | > 50 | > 50 | > 50 | > 50 | 0.1 (≈ 0.244 µM) | 0.8 (≈ 1.95 µM) | 0.05 (≈ 0.122 µM) | 0.4 (≈ 0.977 µM) | 0.4 (≈ 0.977 µM) | 
O=C(Nc1ccc(Nc2ccccn2)cc1)C(=O)c1c(-c2ccccc2)cc2ccccn12 [Example 270, 2-Oxo-2-(2-phenyl-indolizin-3-yl)-N-[4-(pyridin-2-ylamino)-phenyl]-acetamide] | 50 (≈ 116 µM) | 50 (≈ 116 µM) | 6.25 (≈ 14.5 µM) | 50 (≈ 116 µM) | 25 (≈ 57.8 µM) | 0.05 (≈ 0.116 µM) | 0.05 (≈ 0.116 µM) | 0.05 (≈ 0.116 µM) | 0.015 (≈ 0.0347 µM) | 0.05 (≈ 0.116 µM) | 0.12 (≈ 0.277 µM)
O=C(Nc1ccc(-c2nnn[nH]2)cc1)C(=O)c1c(-c2ccccc2)cc2ccccn12 [Example 271, 2-Oxo-2-(2-phenyl-indolizin-3-yl)-N-[4-(1H-tetrazol-5-yl)-phenyl]-acetamide] | 50 (≈ 122 µM) | 50 (≈ 122 µM) | 3.1 (≈ 7.59 µM) | 50 (≈ 122 µM) | 25 (≈ 61.2 µM) | 25 (≈ 61.2 µM) | 50 (≈ 122 µM) | 50 (≈ 122 µM) | 50 (≈ 122 µM) | 50 (≈ 122 µM) | 25 (≈ 61.2 µM)
O=C1CCN(c2ccc(NC(=O)C(=O)c3c(-c4ccccc4)cc4ccccn34)cc2)CC1 [Example 272, 2-Oxo-N-[4-(4-oxo-piperidin-1-yl)-phenyl]-2-(2-phenyl-indolizin-3-yl)-acetamide] | 50 (≈ 114 µM) | 25 (≈ 57.1 µM) | 1.6 (≈ 3.66 µM) | 50 (≈ 114 µM) | 6.25 (≈ 14.3 µM) | 0.12 (≈ 0.274 µM) | 0.25 (≈ 0.571 µM) | 0.062 (≈ 0.142 µM) | 0.5 (≈ 1.14 µM) | 0.5 (≈ 1.14 µM) | 0.12 (≈ 0.274 µM)
CN(C)c1ccc(NC(=O)C(=O)c2c(-c3ccccc3)cc3ccccn23)cc1C(=O)O [Example 274, 2-Dimethylamino-5-[2-oxo-2-(2-phenyl-indolizin-3-yl)-acetylamino]-benzoic acid] | > 50 | 50 (≈ 117 µM) | 3.1 (≈ 7.25 µM) | > 50 | 12.5 (≈ 29.2 µM) | > 50 | 50 (≈ 117 µM) | 50 (≈ 117 µM) | > 50 | > 50 | 12.5 (≈ 29.2 µM)
COC(=O)C1CCCN1c1ccc(NC(=O)C(=O)c2c(-c3ccccc3)cc3ccccn23)cc1 (stereo not shown) [Example 275, 1-{4-[2-Oxo-2-(2-phenyl-indolizin-3-yl)-acetylamino]-phenyl}-pyrrolidine-2-carboxylic acid methyl ester] | > 50 | > 50 | 25 (≈ 53.5 µM) | > 50 | > 50 | 0.03 (≈ 0.0642 µM) | 0.05 (≈ 0.107 µM) | 0.03 (≈ 0.0642 µM) | 0.03 (≈ 0.0642 µM) | 0.4 (≈ 0.856 µM) | 0.015 (≈ 0.0321 µM)
